ChEMBL document CHEMBL4665869, “New thiazolopyrimidine as anticancer agents: Synthesis, biological evaluation, DNA binding, molecular modeling and ADMET study” (Bioorg Med Chem Lett, 2020)
Values after ≈ are worked out from the molar mass of the structure shown.

What was measured:
MDA-MB-468 = test: Growth inhibition of human MDA-MB-468 cells at 10 uM relative to control; type: functional; settings: read-out: GI
MCF7 = test: Growth inhibition of human MCF7 cells at 10 uM relative to control; type: functional; settings: read-out: GI
UACC-257 = test: Growth inhibition of human UACC-257 cells at 10 uM relative to control; type: functional; settings: read-out: GI
NCI-H226 = test: Growth inhibition of human NCI-H226 cells at 10 uM relative to control; type: functional; settings: read-out: GI
CAKI-1 = test: Growth inhibition of human CAKI-1 cells at 10 uM relative to control; type: functional; settings: read-out: GI
MDA-MB-231 = test: Growth inhibition of human MDA-MB-231 cells at 10 uM relative to control; type: functional; settings: read-out: GI
786-0 = test: Growth inhibition of human 786-0 cells at 10 uM relative to control; type: functional; settings: read-out: GI
NCI-H322M = test: Growth inhibition of human NCI-H322M cells at 10 uM relative to control; type: functional; settings: read-out: GI
A549 = test: Growth inhibition of human A549 cells at 10 uM relative to control; type: functional; settings: read-out: GI
LOX IMVI = test: Growth inhibition of human LOX IMVI cells at 10 uM relative to control; type: functional; settings: read-out: GI
RPMI-8226 = test: Growth inhibition of human RPMI-8226 cells at 10 uM relative to control; type: functional; settings: read-out: GI
OVCAR-4 = test: Growth inhibition of human OVCAR-4 cells at 10 uM relative to control; type: functional; settings: read-out: GI
SNB-75 = test: Growth inhibition of human SNB-75 cells at 10 uM relative to control; type: functional; settings: read-out: GI
HCT-116 = test: Growth inhibition of human HCT-116 cells at 10 uM relative to control; type: functional; settings: read-out: GI
SK-MEL-5 = test: Growth inhibition of human SK-MEL-5 cells at 10 uM relative to control; type: functional; settings: read-out: GI
T47D = test: Growth inhibition of human T47D cells at 10 uM relative to control; type: functional; settings: read-out: GI
PC-3 = test: Growth inhibition of human PC-3 cells at 10 uM relative to control; type: functional; settings: read-out: GI
CCRF-CEM = test: Growth inhibition of human CCRF-CEM cells at 10 uM relative to control; type: functional; settings: read-out: GI
SNB-19 = test: Growth inhibition of human SNB-19 cells at 10 uM relative to control; type: functional; settings: read-out: GI
BT-549 = test: Growth inhibition of human BT-549 cells at 10 uM relative to control; type: functional; settings: read-out: GI
KM12 = test: Growth inhibition of human KM12 cells at 10 uM relative to control; type: functional; settings: read-out: GI
OVCAR-5 = test: Growth inhibition of human OVCAR-5 cells at 10 uM relative to control; type: functional; settings: read-out: GI
NCI-H522 = test: Growth inhibition of human NCI-H522 cells at 10 uM relative to control; type: functional; settings: read-out: GI
SF-295 = test: Growth inhibition of human SF-295 cells at 10 uM relative to control; type: functional; settings: read-out: GI
SN12C = test: Growth inhibition of human SN12C cells at 10 uM relative to control; type: functional; settings: read-out: GI
HOP-62 = test: Growth inhibition of human HOP-62 cells at 10 uM relative to control; type: functional; settings: read-out: GI
UO-31 = test: Growth inhibition of human UO-31 cells at 10 uM relative to control; type: functional; settings: read-out: GI
DU-145 = test: Growth inhibition of human DU-145 cells at 10 uM relative to control; type: functional; settings: read-out: GI
TK-10 = test: Growth inhibition of human TK-10 cells at 10 uM relative to control; type: functional; settings: read-out: GI
NCI-H460 = test: Growth inhibition of human NCI-H460 cells at 10 uM relative to control; type: functional; settings: read-out: GI
SF-539 = test: Growth inhibition of human SF-539 cells at 10 uM relative to control; type: functional; settings: read-out: GI
MDA-MB-435 = test: Growth inhibition of human MDA-MB-435 cells at 10 uM relative to control; type: functional; settings: read-out: GI
K562 = test: Growth inhibition of human K562 cells at 10 uM relative to control; type: functional; settings: read-out: GI
SW-620 = test: Growth inhibition of human SW-620 cells at 10 uM relative to control; type: functional; settings: read-out: GI
UACC-62 = test: Growth inhibition of human UACC-62 cells at 10 uM relative to control; type: functional; settings: read-out: GI
M14 = test: Growth inhibition of human M14 cells at 10 uM relative to control; type: functional; settings: read-out: GI
SK-OV-3 = test: Growth inhibition of human SK-OV-3 cells at 10 uM relative to control; type: functional; settings: read-out: GI
HCC 2998 = test: Growth inhibition of human HCC 2998 cells at 10 uM relative to control; type: functional; settings: read-out: GI
SR = test: Growth inhibition of human SR cells at 10 uM relative to control; type: functional; settings: read-out: GI
HCT-15 = test: Growth inhibition of human HCT-15 cells at 10 uM relative to control; type: functional; settings: read-out: GI
SK-MEL-2 = test: Growth inhibition of human SK-MEL-2 cells at 10 uM relative to control; type: functional; settings: read-out: GI
MOLT-4 = test: Growth inhibition of human MOLT-4 cells at 10 uM relative to control; type: functional; settings: read-out: GI
HL-60(TB) = test: Growth inhibition of human HL-60(TB) cells at 10 uM relative to control; type: functional; settings: read-out: GI
RXF 393 = test: Growth inhibition of human RXF 393 cells at 10 uM relative to control; type: functional; settings: read-out: GI
OVCAR-8 = test: Growth inhibition of human OVCAR-8 cells at 10 uM relative to control; type: functional; settings: read-out: GI
HOP-92 = test: Growth inhibition of human HOP-92 cells at 10 uM relative to control; type: functional; settings: read-out: GI
IGROV-1 = test: Growth inhibition of human IGROV-1 cells at 10 uM relative to control; type: functional; settings: read-out: GI
ACHN = test: Growth inhibition of human ACHN cells at 10 uM relative to control; type: functional; settings: read-out: GI
SF-268 = test: Growth inhibition of human SF-268 cells at 10 uM relative to control; type: functional; settings: read-out: GI
Malme-3M = test: Growth inhibition of human Malme-3M cells at 10 uM relative to control; type: functional; settings: read-out: GI
NCI/ADR-RES = test: Growth inhibition of human NCI/ADR-RES cells at 10 uM relative to control; type: functional; settings: read-out: GI
DNA = test: Displacement of methyl green from DNA (unknown origin) assessed as DNA intercalation after 24 hrs by colorimetric assay; type: nucleic-acid assay
Hs-578T = test: Growth inhibition of human Hs-578T cells at 10 uM relative to control; type: functional; settings: read-out: GI
SK-MEL-28 = test: Growth inhibition of human SK-MEL-28 cells at 10 uM relative to control; type: functional; settings: read-out: GI
A498 = test: Growth inhibition of human A498 cells at 10 uM relative to control; type: functional; settings: read-out: GI
COLO 205 = test: Growth inhibition of human COLO 205 cells at 10 uM relative to control; type: functional; settings: read-out: GI
U-251 = test: Growth inhibition of human U-251 cells at 10 uM relative to control; type: functional; settings: read-out: GI
HT-29 = test: Growth inhibition of human HT-29 cells at 10 uM relative to control; type: functional; settings: read-out: GI
NCI-H23 = test: Growth inhibition of human NCI-H23 cells at 10 uM relative to control; type: functional; settings: read-out: GI

With `CCOC(=O)C1=CSC2=NC(/C=C/c3cc(OC)c(OC)c(OC)c3)=CC(c3cc(OC)c(OC)c(OC)c3)N12` (centres undefined) the inhibition of growth at 10 µM (MDA-MB-468) was less than 10%, the inhibition of growth at 10 µM (MCF7) was 28.9% and the inhibition of growth at 10 µM (UACC-257) was 17.2%. For the same compound, the inhibition of growth at 10 µM (NCI-H226) was less than 10%, the inhibition of growth at 10 µM (CAKI-1) was less than 10% and the inhibition of growth at 10 µM (MDA-MB-231) was 14.5%. For the same compound, the inhibition of growth at 10 µM (786-0) was less than 10%, the inhibition of growth at 10 µM (NCI-H322M) was less than 10% and the inhibition of growth at 10 µM (A549) was less than 10%. For the same compound, the inhibition of growth at 10 µM (LOX IMVI) was 29.7%, the inhibition of growth at 10 µM (RPMI-8226) was 18% and the inhibition of growth at 10 µM (OVCAR-4) was 12.5%. The inhibition of growth at 10 µM (SNB-75) was 18.4%, the inhibition of growth at 10 µM (HCT-116) was 44.4% and the inhibition of growth at 10 µM (SK-MEL-5) was 12%. It also gave an inhibition of growth at 10 µM (T47D) of less than 10%, an inhibition of growth at 10 µM (PC-3) of 21.1% and an inhibition of growth at 10 µM (CCRF-CEM) of 69.3%. For the same compound, the inhibition of growth at 10 µM (SNB-19) was less than 10%, the inhibition of growth at 10 µM (BT-549) was less than 10% and the inhibition of growth at 10 µM (KM12) was 22.7%. The inhibition of growth at 10 µM (OVCAR-5) was less than 10%, the inhibition of growth at 10 µM (NCI-H522) was 47.8% and the inhibition of growth at 10 µM (SF-295) was less than 10%. For the same compound, the inhibition of growth at 10 µM (SN12C) was less than 10%, the inhibition of growth at 10 µM (HOP-62) was less than 10% and the inhibition of growth at 10 µM (UO-31) was 13.7%. For the same compound, the inhibition of growth at 10 µM (DU-145) was less than 10%, the inhibition of growth at 10 µM (TK-10) was less than 10% and the inhibition of growth at 10 µM (NCI-H460) was less than 10%. For the same compound, the inhibition of growth at 10 µM (SF-539) was less than 10%, the inhibition of growth at 10 µM (MDA-MB-435) was less than 10% and the inhibition of growth at 10 µM (K562) was 35.7%. The inhibition of growth at 10 µM (SW-620) was 13.4%, the inhibition of growth at 10 µM (UACC-62) was 18% and the inhibition of growth at 10 µM (M14) was less than 10%. It also gave an inhibition of growth at 10 µM (SK-OV-3) of less than 10%, an inhibition of growth at 10 µM (HCC 2998) of less than 10% and an inhibition of growth at 10 µM (SR) of 59%. For the same compound, the inhibition of growth at 10 µM (HCT-15) was 35%, the inhibition of growth at 10 µM (SK-MEL-2) was less than 10% and the inhibition of growth at 10 µM (MOLT-4) was 25.1%. The inhibition of growth at 10 µM (HL-60(TB)) was less than 10%, the inhibition of growth at 10 µM (RXF 393) was less than 10% and the inhibition of growth at 10 µM (OVCAR-8) was 32%. For the same compound, the inhibition of growth at 10 µM (HOP-92) was less than 10%, the inhibition of growth at 10 µM (IGROV-1) was less than 10% and the inhibition of growth at 10 µM (ACHN) was less than 10%. It also gave an inhibition of growth at 10 µM (SF-268) of less than 10%, an inhibition of growth at 10 µM (Malme-3M) of less than 10% and an inhibition of growth at 10 µM (NCI/ADR-RES) of less than 10%. For the same compound, the IC50 (DNA) was 43.92 µg/mL (≈ 77.2 µM), the inhibition of growth at 10 µM (Hs-578T) was less than 10% and the inhibition of growth at 10 µM (SK-MEL-28) was less than 10%. For the same compound, the inhibition of growth at 10 µM (A498) was less than 10%, the inhibition of growth at 10 µM (COLO 205) was less than 10% and the inhibition of growth at 10 µM (U-251) was less than 10%. It also gave an inhibition of growth at 10 µM (HT-29) of 13% and an inhibition of growth at 10 µM (NCI-H23) of less than 10%.
